Measured values from patent publication US10662204B2 (PFIZER INC., priority 2018, dated 2020).

Assays:
[1] = target: T1, GDP-loaded KRAS (1-169) G12C, C51S, C80L, C118S (Homo sapiens, UniProt P01116, C118S/C51S/C80L/G12C); assay: Mass Spectrometry Reactivity Assay (MSRA): covalent adduct of compound and KRAS G12C, Percent Modification; type: binding; conditions: for MSRA (% modification) 5.0 μM 0.017 hr / MSRA (% modification) 5.0 μM 0.25 hr: 5.0 μM compound; for MSRA (% modification) 10 μM 0.50 hr / MSRA (% modification) 10 μM 0.25 hr: 10 μM compound
T1 construct: GDP-loaded KRAS (1-169) G12C, C51S, C80L, C118S
In short: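 Covalent labelling is measured by intact mass: deconvoluted modified and unmodified peak intensities yield percent modification. Compound, usually 5 μM or 10 μM final, reacts at room temperature with 5 μM GDP-bound KRAS G12C (1-169, C51S/C80L/C118S) in Hepes pH 7.5/NaCl/glycerol, sampled at 1, 15, 30, 60 min.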

KRAS G12C = KRAS G12C (Homo sapiens, UniProt P01116, G12C); assay: Cell Activity Assay: accumulation of GDP-bound KRAS G12C in MIAPaCa-2 cells (Raf-1 RBD capture, MSD readout); type: cell-based; set-up: endogenous in cells; host or cells: MIAPaCa-2; conditions: 6 hours, assay limit is 30.00
In short: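 IC50 came from a 4-parameter fit of Ras signal normalized between DMSO and full-inhibition controls. Readout: lysate GTP-Ras bound to immobilized Raf-1 RBD, quantified with pan-Ras antibody and MSD electrochemiluminescence. Lysates derived from MIAPaCa-2 cells treated 6 h with serially diluted compound, 0.3% DMSO.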

Compound | MSRA (% modification) 5.0 μM 0.017 hr [1] [%] | IC50 (KRAS G12C) [µM] | MSRA (% modification) 10 μM 0.50 hr [1] [%] | MSRA (% modification) 10 μM 0.25 hr [1] [%] | MSRA (% modification) 5.0 μM 0.25 hr [1] [%]
C=CC(=O)N1CCN(c2nc(O[C@@H]3CN(C)C[C@H]3OCC(F)F)nc3c(Oc4c(Cl)c(F)cc5[nH]ncc45)nccc23)CC1 (racemic) [Example 32I, rac-1-[4-(8-[(5-chloro-6-fluoro-1H-indazol-4-yl)oxy]-2-{[(3R,4R)-4-(2,2-difluoro-ethoxy)-1-methyl-pyrrolidin-3-yl]oxy}pyrido [3,4-d]pyrimidin-4-yl)piperazin-1-yl]prop-2-en-1-one] | 19 | 0.168 |  |  | 
C=CC(=O)N1CCN(c2nc(O[C@@H]3CN(C)C[C@H]3O)nc3c(Oc4c(Cl)c(F)cc5[nH]ncc45)nc(Cl)cc23)CC1 [Example 37G, 1-[4-(6-chloro-8-[(5-chloro-6-fluoro-1H-indazol-4-yl)oxy]-2-{[(3R,4R)-4-hydroxy-1-methylpyrrolidin-3-yl]oxy}pyrido[3,4-d]pyrimidin-4-yl)piperazin-1-yl]prop-2-en-1-one] | 37 | 0.338 |  |  | 
C=CC(=O)N1CCN(c2ncnc3c(Oc4c(Cl)c(F)cc5[nH]ncc45)nccc23)C[C@@H]1C [Example 26A, 1-[(2S)-4-{8-[(5-chloro-6-fluoro-1H-indazol-4-yl)oxy]pyrido[3,4-d]pyrimidin-4-yl}-2-methylpiperazin-1-yl]prop-2-en-1-one] |  | 27.6 | 14 |  | 
C=CC(=O)N1CCN(c2nc(OC[C@H]3COCCN3C)nc3c(Oc4c(Cl)c(F)cc5[nH]ncc45)nc(Cl)cc23)CC1 [Example 08G, 1-[4-(6-chloro-8-[(5-chloro-6-fluoro-1H-indazol-4-yl)oxy]-2-{[(3R)-4-methylmorpholin-3-yl]methoxy}pyrido[3,4-d]pyrimidin-4-yl)piperazin-1-yl]prop-2-en-1-one] |  | 0.148 |  | 80 | 
C=CC(=O)N1CCN(c2nc(Oc3cnn(C)c3)nc3c(Oc4c(Cl)c(F)cc5[nH]ncc45)nccc23)CC1 [Example 09I, 1-(4-{8-[(5-chloro-6-fluoro-1H-indazol-4-yl)oxy]-2-[(1-methyl-1H-pyrazol-4-yl)oxy]pyrido [3,4-d]pyrimidin-4-yl}piperazin-1-yl)prop-2-en-1-one] |  | 0.398 |  |  | 44
C=CC(=O)N1CCN(c2nc(O[C@@H]3CN(CCO)C[C@H]3OC)nc3c(Oc4c(Cl)c(F)cc5[nH]ncc45)nccc23)CC1 [Example 46I, 1-[4-(8-[(5-chloro-6-fluoro-1H-indazol-4-yl)oxy]-2-{[(3R,4R)-1-(2-hydroxy-ethyl)-4-methoxy-pyrrolidin-3-yl]oxy}pyrido [3,4-d]pyrimidin-4-yl)piperazin-1-yl]prop-2-en-1-one] | 70 | 0.285 |  |  | 
C=CC(=O)N1CCN(c2nc(NCc3nncn3C)nc3c(Oc4c(C)ccc5[nH]ncc45)cccc23)CC1 [Example 02F, 1-[4-(8-[(5-methyl-1H-indazol-4-yl)oxy]-2-{[(4-methyl-4H-1,2,4-triazol-3-yl)methyl]amino}quinazolin-4-yl)piperazin-1-yl]prop-2-en-1-one] |  | > 30 | 14 |  | 
C=CC(=O)N1CCN(c2nc(OC[C@@H]3C[C@H](F)CN3C)nc3c(Oc4c(Cl)c(F)cc5[nH]ncc45)nc(Cl)cc23)CC1 [Example 21G, 1-[4-(6-chloro-8-[(5-chloro-6-fluoro-1H-indazol-4-yl)oxy]-2-{[(2S,4S)-4-fluoro-1-methylpyrrolidin-2-yl]methoxy}pyrido[3,4-d]pyrimidin-4-yl)piperazin-1-yl]prop-2-en-1-one] |  | 0.075 |  | 80 | 
C=CC(=O)N1CCN(c2ncnc3c(Oc4c(C)ccc5[nH]ncc45)nc(Cl)cc23)CC1 [Example 09A, 1-(4-{6-chloro-8-[(5-methyl-1H-indazol-4-yl)oxy]pyrido[3,4-d]pyrimidin-4-yl}piperazin-1-yl)prop-2-en-1-one] |  | 1.87 | 38 |  | 
C=CC(=O)N1CCN(c2nc(N3CC4(C3)C(=O)NCN4C)nc3c(Oc4c(C)ccc5[nH]ncc45)cccc23)CC1 [Example 18F, 2-{4-(4-acryloylpiperazin-1-yl)-8-[(5-methyl-1H-indazol-4-yl)oxy]quinazolin-2-yl}-5-methyl-2,5,7-triazaspiro[3.4]octan-8-one] |  | 29.3 | 23 |  | 
C=CC(=O)N1CCN(c2nc(OC[C@@H]3CCC(=O)N3)nc3c(Oc4c(C)ccc5[nH]ncc45)cccc23)CC1 [Example 11F, (5S)-5-[({4-(4-acryloylpiperazin-1-yl)-8-[(5-methyl-1H-indazol-4-yl)oxy]quinazolin-2-yl}oxy)methyl]pyrrolidin-2-one] |  | 8.14 | 55 | 34 | 
C=CC(=O)N1CCN(c2nc(OCC(C)(C)O)nc3c(Oc4c(Cl)c(F)cc5[nH]ncc45)nc(Cl)cc23)CC1 [Example 13G, 1-(4-{6-chloro-8-[(5-chloro-6-fluoro-1H-indazol-4-yl)oxy]-2-(2-hydroxy-2-methylpropoxy)pyrido[3,4-d]pyrimidin-4-yl}piperazin-1-yl)prop-2-en-1-one] |  | 0.16 | 80 | 78 | 70
C=CC(=O)N1CCN(c2ncnc3c(Oc4c(C)ccc5[nH]ncc45)nccc23)[C@@H](C)C1 [Example 10A, 1-[(3S)-3-methyl-4-{8-[(5-methyl-1H-indazol-4-yl)oxy]pyrido[3,4-d]pyrimidin-4-yl}piperazin-1-yl]prop-2-en-1-one] |  | 7.5 | 10 |  | 
C=CC(=O)N1CCN(c2ncnc3c(Oc4c(C)ccc5[nH]ncc45)nccc23)CC1 [Example 01A, 1-(4-{8-[(5-methyl-1H-indazol-4-yl)oxy]pyrido[3,4-d]pyrimidin-4-yl}piperazin-1-yl)prop-2-en-1-one] |  | 11.8 | 11 |  | 
C=CC(=O)N1CCN(c2nc(OC[C@H]3CCN(C)C3)nc3c(Oc4c(C)ccc5[nH]ncc45)nccc23)CC1 [Example 19E, 1-[4-(8-[(5-methyl-1H-indazol-4-yl)oxy]-2-{[(3S)-1-methylpyrrolidin-3-yl]methoxy}pyrido[3,4-d]pyrimidin-4-yl)piperazin-1-yl]prop-2-en-1-one] |  | 29.8 |  | 33 | 
C=CC(=O)N1CCN(c2ncnc3c(Nc4c(C)ccc5[nH]ncc45)nccc23)CC1 [Example 05, 1-(4-{8-[(5-methyl-1H-indazol-4-yl)amino]pyrido[3,4-d]pyrimidin-4-yl}piperazin-1-yl)prop-2-en-1-one] |  | 29.3 | 5 |  | 
C=CC(=O)N1CCN(c2nc(N3CC(N(C)C)C3)nc3c(Oc4c(Cl)c(F)cc5[nH]ncc45)nc(Cl)cc23)CC1 [Example 05G, 1-(4-{6-chloro-8-[(5-chloro-6-fluoro-1H-indazol-4-yl)oxy]-2-[3-(dimethylamino)azetidin-1-yl]pyrido[3,4-d]pyrimidin-4-yl}piperazin-1-yl)prop-2-en-1-one] |  | 0.164 | 82 | 81 | 80
C=CC(=O)N1CCN(c2ncnc3c(Oc4c(Cl)c(C)cc5[nH]ncc45)nc(C#N)cc23)CC1 [Example 19A, 4-(4-acryloylpiperazin-1-yl)-8-[(5-chloro-6-methyl-1H-indazol-4-yl)oxy]pyrido[3,4-d]pyrimidine-6-carbonitrile] |  | 28 | 33 | 21 | 
C=CC(=O)N1CCN(c2nc(N3CC(N(C)C)C3)nc3c(Oc4c(Cl)c(F)cc5[nH]ncc45)nccc23)CC1 [Example 02H, 1-(4-{8-[(5-chloro-6-fluoro-1H-indazol-4-yl)oxy]-2-[3-(dimethylamino)azetidin-1-yl]pyrido[3,4-d]pyrimidin-4-yl}piperazin-1-yl)prop-2-en-1-one] |  | 0.505 |  | 53 | 
C=CC(=O)N1CCN(c2ncnc3c(Oc4c(Cl)c(F)cc5[nH]ncc45)nc(Cl)cc23)C[C@H]1C [Example 37A, 1-[(2R)-4-{6-chloro-8-[(5-chloro-6-fluoro-1H-indazol-4-yl)oxy]pyrido[3,4-d]pyrimidin-4-yl}-2-methylpiperazin-1-yl]prop-2-en-1-one] |  | 0.622 |  | 63 | 
C=CC(=O)N1CCN(c2nc(OCCCN(C)C)nc3c(Oc4c(C)ccc5[nH]ncc45)nccc23)CC1 [Example 04B, 1-(4-{2-[3-(dimethylamino)propoxy]-8-[(5-methyl-1H-indazol-4-yl)oxy]pyrido[3,4-d]pyrimidin-4-yl}piperazin-1-yl)prop-2-en-1-one] |  | 23 | 21 |  | 
